According to US20140162974A1, “METHODS FOR MODULATION OF PHOSPHORUS AND FGF23” (Luitpold Pharmaceuticals, Inc., priority 2012, published 2014):

Experiments:
Type in all cases: in vivo, human
[1] = system: C-terminal FGF23 (cFGF23); assay: Example 3 trial: plasma C-terminal FGF23; conditions: for effect on cFGF23 levels: in vivo; for lowering of cFGF23 levels within 24 hours: intravenous iron in iron deficient women; for C-terminal FGF23, Day 1 / C-terminal FGF23, Day 7 / C-terminal FGF23, Day 14 / C-terminal FGF23, Day 35: mean ± standard error, unit from the 3rd table
Protocol: Study visits were on Days 0 (when iron was infused), 1 (24 hours after iron infusion), 7, 14, and 35. The primary objectives were to determine the effect of iron deficiency on cFGF23 and iFGF23 levels and the effect of intravenous iron on iFGF23 and cFGF23 levels.
Randomization occurred centrally via a fax-based system. […] The complete dose was infused over 15 minutes on day 0. […] An initial test dose of 25 mg was administered slowly over 5 minutes.
Laboratory testing of blood and three-hour urine collections was performed at the screening visit and on study days 0 (when iron was infused), 1 (24 hours after iron infusion), 7, 14, and 35 (see e.g., FIG. 2A). Any subject who experienced a reduction in serum phosphate below the normal range after day 0 underwent additional phosphate measurements at 14 day intervals following day 35 until the level returned to the normal reference range. Safety evaluations of all subjects included ascertainment of adverse events, physical examinations at all study visits, and laboratory assessments. Any subject who withdrew from the study received a follow-up phone call to ascertain adverse events 30 days after they received study drug.
Blood and urine samples were sent to a central laboratory for analysis (Covance Central Laboratory Service, Indianapolis, Ind.). Hemoglobin, blood counts, iron indices, electrolytes, and serum and urinary phosphate and creatinine were measured with standard, automated, multi-analyte techniques. Urinary fractional excretion of phosphate (FEPi) was calculated from the three-hour, morning urine collections as urinary phosphate x serum creatinine/serum phosphate x urinary creatinine. Serum levels of 25-hydroxyvitamin D and 1,25-dihydroxyvitamin D were measured in duplicate by radioimmunoassay (DiaSorin, Stillwater, Minn.) with intra-assay coefficients of variation (CV)<11.6%. Plasma C-terminal FGF23 (cFGF23) was measured in duplicate in EDTA-plasma samples using a human FGF23 immunometric assay capable of detecting both the intact peptide and its C-terminal fragments (Immutopics, San Clemente, Ca) with intra-assay CV≦3.8%. Because cFGF23 testing was performed in parallel with rolling enrollment and follow-up, all cFGF23 assay plates tested combinations of baseline and post-intervention samples from multiple study participants. Serum intact FGF23 (iFGF23) was measured in batches of baseline and post-intervention samples from multiple study participants at study end using an immunometric assay that detects the intact peptide exclusively (Kyowa Medex Company, Shizuoka, Japan) with intra-assay CV<2.7%. Serum hepcidin levels were measured on days 0, 7, and 35 using an enzyme-linked immunosorbent assay (Intrinsic LifeSciences, La Jolla, Calif.) with intra-assay CV≦19%. Urinary amino acids, glucose, albumin, and beta 2 microglobulin were measured to test for the possibility of global proximal tubular dysfunction. Urinary deoxypyridinoline cross link, and serum osteocalcin and bone-specific alkaline phosphatase were measured to assess bone turnover.
Baseline characteristics are presented as mean±standard error for continuous variables and as proportions for categorical variables. The association between iron indices and baseline and change in FGF23 levels was assessed with Spearman correlations. Restricted maximum likelihood-based repeated measures analyses (linear mixed models) that considered the effects of treatment, visit, and treatment x time interaction, with baseline values treated as a fixed covariate were used for the primary analyses of mean changes from baseline in continuous markers of phosphate homeostasis. The models employed unstructured covariance structures without imputing missing values. All outcome variables that were not normally distributed were analyzed after natural log-transformation. […]

[2] = system: hemoglobin, ferritin, TSAT; assay: VIT-30 efficacy: hemoglobin and iron indices
Protocol: (§1) Study visits were on Days 0, 3, 7, 10, 14, 28, 56, and 120. A phone assessment occurred on Day 90.
The Venofer Group received 5 doses of Venofer, 200 mg for a total dose of 1,000 mg.
For Venofer, subjects received, as an IV push injection over 2 to 5 minutes, 200 mg on Days 0, 7, and 14 with 2 additional doses given: 1 between Days 0 and 7 and the other between Days 7 and 14 (i.e., for a total of 5 doses [1,000 mg]).
For efficacy, the primary efficacy measure was the mean change from baseline to the highest observed hemoglobin any time between baseline and end of treatment period (Day 56) or time of intervention. Supportive efficacy measures included the following: (a) proportion of subjects achieving an increase in hemoglobin of ≧1 g/dL any time between baseline and end of treatment period (Day 56) or time of intervention; (b) mean change from baseline to the highest observed ferritin any time between baseline and treatment period (Day 56) or time of intervention; (c) mean change from baseline to the highest observed TSAT any time between baseline and treatment period (Day 56) or time of intervention; and (d) mean change from baseline to the pre-dosing value on Day 7 for hemoglobin, ferritin, and TSAT.
The hemoglobin baseline was defined as the average of the last 2 hemoglobin values from the central laboratory prior to the first dose of study drug. If only 1 centrally-measured hemoglobin value was available prior to the first dose of study drug, the single value was used for baseline. Non-inferiority was concluded if the lower limit of the 2-sided CI was ≧−0.075. This non-inferiority margin preserved >50% of the difference from oral iron observed previously.
The mean change from baseline to highest TSAT and ferritin was assessed for treatment group differences with the 95% 2-sided CI (based on normal distribution, assuming equal variances). Mean change from baseline to each scheduled visit was similarly assessed for hemoglobin, TSAT, ferritin, serum iron, total iron binding capacity, and unsaturated iron binding capacity. Baseline was calculated as described above. Assessments were assigned to scheduled visits as follows (if the assessment was on a dosing day for IV iron, the assessment before dosing was selected): • Day 7: Assessments on Days 4 through 10. • Day 14: Assessments on Days 11 through 21. • Day 28: Assessments on Days 22 through 35. • Day 56: Assessments on Days 50 through 63.

[3] = system: phosphate; assay: Prior studies 1VIT04002/1VIT04003: phosphate change after FCM; conditions: iron deficiency anemia secondary to heavy uterine bleeding; measured at baseline and days 7, 14, 28, 42; N=228
[4] = system: FGF-23; assay: VIT-30: FGF-23
Source text: FIG. 1 is a line and scatter plot showing mean changes in phosphate (left vertical axis) or changes in FGF-23 (right vertical axis) with respect to baseline value at each study day (0, 7, 14, 28, or 56) as indicated on the Horizontal (X) axis for trial VIT30. […] Further details regarding methodology are provided in Example 2.
as §1
For quantitative baseline characteristics, the association with FGF-23 at Screening was evaluated with Pearson product moment and Spearman correlations. For qualitative baseline characteristics, the association with FGF-23 at Screening was evaluated with mean differences in FGF-23 among categories of the baseline characteristic.
Descriptive statistics for FGF-23 at Screening (mean, median, standard deviation, quartiles, minimum, and maximum) were summarized for subgroups.

| Substance | C-terminal FGF23, Change from baseline ([1]; Day 1) | C-terminal FGF23, Change from baseline ([1]; Day 7) | C-terminal FGF23, Change from baseline ([1]; Day 14) | C-terminal FGF23, Change from baseline ([1]; Day 35) | effect on cFGF23 levels [1] | lowering of cFGF23 levels within 24 hours [1] | C-terminal FGF23, Day 1 [1] | C-terminal FGF23, Day 7 [1] | C-terminal FGF23, Day 14 [1] | C-terminal FGF23, Day 35 [1] | proportion of subjects with an increase in hemoglobin ≧1.0 g/dL, FCM compared with Venofer ([2]; anytime between baseline and Day 56 or time of intervention) | mean increases in ferritin, TSAT, serum iron and mean decreases in TIBC and unsaturated IBC, FCM compared with Venofer ([2]; baseline to highest value between baseline and Day 56 or time of intervention) | mean increase in hemoglobin from baseline to highest value, FCM compared with Venofer ([2]; between baseline and Day 56 or time of intervention) | noninferiority test on mean increase in hemoglobin, FCM to Venofer ([2]; lower limit of 2-sided 95% CI ≧−0.2) | noninferiority test on proportion with hemoglobin increase ≧1.0 g/dL, FCM to Venofer ([2]; overall population, 2-sided 95% CI) | mean change in phosphate [3] | cFGF23 in FCM subjects who did vs did not develop serum phosphate<2.0 mg/dL ([1]; stratified analysis) | changes in FGF-23 with respect to baseline (FIG. 1) ([4]; Days 7, 14, 28, 56, trial VIT30) | FGF 23 change from baseline to Day 56 within group ([4]; in vivo) |
| --- | --- | --- | --- | --- | --- | --- | --- | --- | --- | --- | --- | --- | --- | --- | --- | --- | --- | --- | --- |
| iron dextran [reference compound] | −82.5% | −85.6% | −87.3% | −80.0% | rapidly lowered | 80% | 152 ± 17.5 RU/mL | 114 ± 17.7 RU/mL | 107 ± 16.0 RU/mL | 170 ± 51.2 RU/mL | – | – | – | – | – | – | – | – | – |
| polynuclear iron (III)-hydroxide 4(R)-(poly-(1→4)-O-α-glucopyranosyl)-oxy-2(R),3(S),5(R),6-tetrahydroxy-hexanoate [FCM] | −78.6% | −80.9% | −77.5% | −78.9% | rapidly lowered | 80% | 177 ± 12.4 RU/mL | 165 ± 34.9 RU/mL | 170 ± 55.8 RU/mL | 182 ± 73.7 RU/mL | statistically significantly greater | statistically significantly greater | statistically significantly greater | noninferiority | noninferiority | 1.9 mg/dL | decreased similarly in both groups | almost always decreases with respect to baseline (except for FCM on Day 14) | statistically significant decrease |
